Laboratory results reported in patent US6323196A, “Galanthamine derivatives as acetylcholinesterase inhibitors” (priority 1993, dated 2001).
pIC50: −log10 of the molar value. Where a name gives a salt, the structure may show the parent alone. Read-outs that look alike come from different tables or passages of the source.

Columns and labels:
acetylcholinesterase = acetylcholinesterase (Homo sapiens, UniProt P22303); test: Acetylcholinesterase Inhibition Assay (photometric method); assay type: biochemical
mice = assay type: in vivo; conditions: SDDA; dose 0.003 mg/kg, s.c.; retest after 24 hours
Description: This utility can also be ascertained by determining the ability of these compounds to restore cholinergically deficient memory in the Dark Avoidance Assay. In this assay mice are tested for their ability to remember an unpleasant stimulus for a period of 24 hours. A mouse is placed in a chamber that contains a dark compartment; a strong incandescent light drives it to the dark compartment, where arn electric shock is administered through metal plates on the floor. The animal is removed from the testing apparatus and tested again, 24 hours later, for the ability to remember the electric shock.
If scopolamine, an anticholinergic that is known to cause memory impairment, is administered before an animal's initial exposure to the test chamber, the animal re-enters the dark compartment shortly after being placed in the test chamber 24 hours later. This effect of scopolamine is blocked by an active test compounds, resulting in a greater interval before re-entry into the dark compartment.
The test results are expressed as the percent of a group of animals in which the effect of scopolanine is blocked, as manifested by an increased interval between being placed in the test chamber and re-entering the dark compartment. Results of Dark Avoidance Assay for some of the compounds of this invention are presented in Table II along with a result for a reference compounds.

acetylcholinesterase, sequence (P22303 32-614): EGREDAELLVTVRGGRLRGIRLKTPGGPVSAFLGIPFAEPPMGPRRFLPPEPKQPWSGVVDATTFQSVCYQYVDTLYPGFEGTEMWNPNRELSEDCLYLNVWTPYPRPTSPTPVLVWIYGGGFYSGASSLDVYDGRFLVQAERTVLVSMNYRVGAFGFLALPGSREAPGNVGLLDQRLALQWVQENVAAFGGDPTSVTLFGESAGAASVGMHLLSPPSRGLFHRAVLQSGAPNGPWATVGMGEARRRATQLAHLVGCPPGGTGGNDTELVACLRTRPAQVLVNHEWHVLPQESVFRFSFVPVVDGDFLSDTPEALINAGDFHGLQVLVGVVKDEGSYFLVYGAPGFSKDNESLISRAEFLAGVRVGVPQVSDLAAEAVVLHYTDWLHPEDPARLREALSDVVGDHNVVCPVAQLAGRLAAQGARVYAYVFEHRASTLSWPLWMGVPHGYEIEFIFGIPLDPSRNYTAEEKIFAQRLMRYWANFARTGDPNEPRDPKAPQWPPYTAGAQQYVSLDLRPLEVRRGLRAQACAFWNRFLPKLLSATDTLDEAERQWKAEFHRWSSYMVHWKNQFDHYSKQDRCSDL

## CNC(=O)Oc1ccc2c3c1O[C@H]1C[C@@H](O)C=C[C@@]31CCN(C)C2 [6-O-Demethyl-6-O-(methylaminocarbonyl)galanthamine]
acetylcholinesterase; photometric method, read-out: IC50 CHE I (acetylcholinesterase inhibition)
  pIC50: 8.70
mice
  Percent of Animals with Scopolamine Induced Memory Deficit Reversal: 27%

## CNC(=O)Oc1ccc2c3c1O[C@H]1C[C@@H](OC(=O)C(C)C)C=C[C@@]31CCN(C)C2 [6-O-Demethy-6-O-(methylaminocarbonyl)-3-O-(propan-2-yl-carbonyl)galanthamine Hydrochloride]
acetylcholinesterase
  pIC50: 7.33
